The values that follow come from US20090215029A1, “METHODS OF ISOLATING AND PURIFYING NUCLEIC ACID-BINDING BIOMOLECULES AND COMPOSITIONS INCLUDING SAME” (CytoCure, Inc., priority 2007, published 2009).

Where two headings read alike, the source gives them in different places.

In test [1] the test system is nucleic acids to a bound factor. The experiment in a line: Cross-linking / fixative activity: effectiveness in covalently linking nucleic acids to a bound factor. Format: biochemical. The method, then: Several cross-linking fixatives incorporating a nucleic acid binding group covalently coupled with a primary amine-binding group were synthesized. These agents were assayed to determine effectiveness covalently linking nucleic acids to a bound factor.

Test [2] relates to whole cells. As to the kind of experiment: Combination crosslinking, first and second agents added to whole cells. Format: cell-based. The note with it: combination with second agent EGS (amine binding); both added more or less simultaneously to whole cells, not less than 30 minutes, room temperature to 37 Celsius.
Method: Note: For Combination crosslinking experiments, both the First and Second agents are added more or less simultaneously to whole cells (ethidium bromide requires prior membrane permeabilization) for not less than 30 minutes at room temperature to 37 Celsius.

Consider “2,5-dioxopyrrolidin-1-yl-2-(4-(3-methylthioureido)-4-oxobutanoyloxy)ethyl succinate chloro(ethylenediamine)platinum(II) complex”, for which the Activity entry in test [1] is given as “Some”.

Consider `C1OC1C1CO1` (stereo not drawn) [1,3 butadiene diepoxide], for which, in test [1], the “Activity as fixative agent” value was “some activity”.

On to `Cc1oc2c(C)c3oc(=O)cc(C)c3cc2c1CN` [4-aminomethyl trioxsalen], for which the Activity entry in test [2] was “Weak”.

As to `O=C(CCC(=O)OCCOC(=O)CCC(=O)ON1C(=O)CCC1=O)NC(Cc1ccc(N(CCCl)CCCl)cc1)C(=O)O` (stereo not drawn) [A, 3-(4-(bis(2-chloroethyl)amino)phenyl)-2-(4-(2-(4-(2,5-dioxopyrrolidin-1-yloxy)-4-oxobutanoyloxy)ethoxy)-4-oxobutanamido)propanoic acid], in test [1], the Activity entry is listed as “Strong”.

Consider `CC[n+]1c(-c2ccccc2)c2cc(N=[N+]=[N-])ccc2c2ccc(NC(=O)CCC(=O)OCCOC(=O)CCC(=O)ON3C(=O)CCC3=O)cc21.[Br-]` [B, 8-azido-3-(4-(2-(4-(2,5-dioxopyrrolidin-1-yloxy)-4-oxobutanoyloxy)ethoxy)-4-oxobutanamido)-5-ethyl-6-phenylphenanthridinium bromide], for which the Activity entry in test [1] (synthesized compounds: DNA-binding moiety coupled with NHS ester protein-binding moiety) was “Strong”.

With `N.N.[Cl][Pt][Cl]` [Cisplatin], in test [2], the Activity entry was “Strong”.

For the molecule `CC[n+]1c(-c2ccccc2)c2cc(N=[N+]=[N-])ccc2c2ccc(N)cc21.[Br-]` [Ethidium bromide monoazide, 3-Amino-8-azido-5-ethyl-6-phenylphenanthridinium bromide], the Activity entry in test [2] is “Strong”.

As for `O=CCCCC=O` [glutaraldehyde], the “Activity as fixative agent” value in test [1] (additional fixative agents) is listed as “some activity”.

On to `O=CC=O` [glyoxal], for which the “Activity as fixative agent” value in test [1] is on record as “some activity”.
